Consider one compound from patent US20050085463A1 (priority 2003, published 2005).

Where “and” joins values, the source holds several entries; their conditions need not be identical. Identical values can stand only once. Entries after “also recorded” stand apart in the source; their conditions may differ. Bounds are passed on as bounds.

In one assay the target is H1 receptors (Homo sapiens, UniProt P35367). Nature of the assay: Ligand binding screen at 10 μM.
In another assay the target is δ2 receptors (Homo sapiens, UniProt P41143). Nature of the assay: Ligand binding screen at 10 μM.
δ2 receptors, sequence (P41143 whole entry): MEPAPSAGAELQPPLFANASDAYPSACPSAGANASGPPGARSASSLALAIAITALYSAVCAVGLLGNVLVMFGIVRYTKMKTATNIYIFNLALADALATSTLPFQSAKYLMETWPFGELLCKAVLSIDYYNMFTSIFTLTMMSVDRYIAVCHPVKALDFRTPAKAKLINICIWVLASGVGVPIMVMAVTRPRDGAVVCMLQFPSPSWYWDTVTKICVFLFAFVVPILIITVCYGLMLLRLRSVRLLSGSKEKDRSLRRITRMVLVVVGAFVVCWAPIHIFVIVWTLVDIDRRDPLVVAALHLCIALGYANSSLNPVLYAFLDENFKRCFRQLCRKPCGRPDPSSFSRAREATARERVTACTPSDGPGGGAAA
The target in a further assay is M1 receptors (Homo sapiens, UniProt P11229). The experiment in a line: Ligand binding screen at 10 μM.
M1 receptors, sequence (P11229 whole entry): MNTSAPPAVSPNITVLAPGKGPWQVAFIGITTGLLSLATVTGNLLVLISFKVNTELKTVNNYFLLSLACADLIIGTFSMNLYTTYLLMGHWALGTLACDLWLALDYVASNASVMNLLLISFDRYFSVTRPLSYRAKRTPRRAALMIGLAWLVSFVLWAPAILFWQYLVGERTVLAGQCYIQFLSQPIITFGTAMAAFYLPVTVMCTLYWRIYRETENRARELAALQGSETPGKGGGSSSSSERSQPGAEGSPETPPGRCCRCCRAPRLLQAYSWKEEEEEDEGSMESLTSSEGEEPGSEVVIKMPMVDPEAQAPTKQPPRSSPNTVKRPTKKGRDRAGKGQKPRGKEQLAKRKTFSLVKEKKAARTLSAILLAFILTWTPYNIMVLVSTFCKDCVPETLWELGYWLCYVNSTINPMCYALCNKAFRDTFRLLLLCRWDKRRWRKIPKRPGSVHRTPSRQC
For assay [1], the system named is MAPK in CA1 region of hippocampus (M1 receptor mediated).
The target in assay [2] is T1, M3 muscarinic receptor (Homo sapiens, UniProt P20309). The experiment in a line: R-SAT competitive antagonist assay. The assay is classed as cell-based. The conditions noted are these: nr = no significant antagonist or inverse agonist activity up to 1 μM, nr* = nr but significant agonist activity, read-out: pKi M3, competitive antagonist (converted).
T1 sequence (P20309 whole entry): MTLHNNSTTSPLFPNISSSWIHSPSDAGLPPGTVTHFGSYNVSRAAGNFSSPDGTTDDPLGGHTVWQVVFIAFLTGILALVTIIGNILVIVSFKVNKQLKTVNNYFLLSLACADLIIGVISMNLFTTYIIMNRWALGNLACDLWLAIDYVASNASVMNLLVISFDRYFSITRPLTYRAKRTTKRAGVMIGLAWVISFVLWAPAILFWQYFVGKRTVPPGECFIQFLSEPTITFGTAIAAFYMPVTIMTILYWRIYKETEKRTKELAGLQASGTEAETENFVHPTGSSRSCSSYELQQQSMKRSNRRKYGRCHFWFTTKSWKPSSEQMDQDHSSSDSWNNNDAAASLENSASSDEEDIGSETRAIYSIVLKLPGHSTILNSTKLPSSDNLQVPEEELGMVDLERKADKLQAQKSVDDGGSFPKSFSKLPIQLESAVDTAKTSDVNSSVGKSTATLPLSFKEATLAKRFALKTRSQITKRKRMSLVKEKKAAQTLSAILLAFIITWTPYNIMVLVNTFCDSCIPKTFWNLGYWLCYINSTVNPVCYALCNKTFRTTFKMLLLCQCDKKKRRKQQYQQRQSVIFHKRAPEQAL
Assay [3] concerns the target T2, α1A (Alpha 1A) adrenergic receptor (Homo sapiens, UniProt P35348).
T2 sequence (P35348 1-466): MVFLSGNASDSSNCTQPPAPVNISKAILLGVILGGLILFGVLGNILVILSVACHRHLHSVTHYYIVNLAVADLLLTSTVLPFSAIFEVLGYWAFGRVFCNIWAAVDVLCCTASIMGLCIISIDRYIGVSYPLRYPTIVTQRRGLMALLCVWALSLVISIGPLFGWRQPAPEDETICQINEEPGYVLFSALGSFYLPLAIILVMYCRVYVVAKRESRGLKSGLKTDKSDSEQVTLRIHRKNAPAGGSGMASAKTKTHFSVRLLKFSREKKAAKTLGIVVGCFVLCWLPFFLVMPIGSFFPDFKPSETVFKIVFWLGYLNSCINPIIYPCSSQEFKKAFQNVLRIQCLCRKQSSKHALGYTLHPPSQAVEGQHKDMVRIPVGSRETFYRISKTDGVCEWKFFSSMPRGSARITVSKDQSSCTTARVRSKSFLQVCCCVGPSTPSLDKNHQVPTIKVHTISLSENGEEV
The conditions noted are these: R-SAT; nr = no significant antagonist or inverse agonist activity up to 1 μM; nr* = nr but significant agonist activity.

A further assay deals with H1 histamine receptor (Homo sapiens, UniProt P35367). Nature of the assay: R-SAT competitive antagonist assay.
H1 histamine receptor, sequence (P35367 whole entry): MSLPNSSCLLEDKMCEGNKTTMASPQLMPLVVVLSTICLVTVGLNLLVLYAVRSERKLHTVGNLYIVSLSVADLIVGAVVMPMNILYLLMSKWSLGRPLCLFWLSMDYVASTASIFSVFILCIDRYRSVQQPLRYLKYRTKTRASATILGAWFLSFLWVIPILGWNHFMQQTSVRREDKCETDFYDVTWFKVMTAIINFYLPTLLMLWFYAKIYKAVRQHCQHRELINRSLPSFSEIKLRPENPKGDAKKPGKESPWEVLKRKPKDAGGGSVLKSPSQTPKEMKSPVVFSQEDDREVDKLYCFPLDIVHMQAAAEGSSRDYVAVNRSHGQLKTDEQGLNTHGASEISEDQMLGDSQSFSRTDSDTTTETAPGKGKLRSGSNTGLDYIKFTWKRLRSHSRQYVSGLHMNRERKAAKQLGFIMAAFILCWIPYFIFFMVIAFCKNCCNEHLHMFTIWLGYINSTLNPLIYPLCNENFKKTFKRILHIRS
Another assay addresses 5HT3 receptors (Homo sapiens, UniProt P46098). The experiment in a line: Ligand binding screen at 10 μM.
The target of another assay is 5HT6 receptors (Homo sapiens, UniProt P50406). Nature of the assay: Ligand binding screen at 10 μM.
5HT6 receptors, sequence (P50406 whole entry): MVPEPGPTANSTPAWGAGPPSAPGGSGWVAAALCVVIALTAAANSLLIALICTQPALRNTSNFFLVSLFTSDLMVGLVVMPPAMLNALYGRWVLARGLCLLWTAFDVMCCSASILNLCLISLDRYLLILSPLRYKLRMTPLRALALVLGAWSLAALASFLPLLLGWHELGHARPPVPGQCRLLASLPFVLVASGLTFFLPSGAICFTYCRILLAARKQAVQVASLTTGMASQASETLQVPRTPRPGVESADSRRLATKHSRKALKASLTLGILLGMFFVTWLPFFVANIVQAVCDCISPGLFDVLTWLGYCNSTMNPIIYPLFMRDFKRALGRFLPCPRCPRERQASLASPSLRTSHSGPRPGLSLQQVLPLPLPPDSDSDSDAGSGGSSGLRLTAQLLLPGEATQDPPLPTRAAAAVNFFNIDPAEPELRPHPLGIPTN
A further assay concerns cFOS expression in brain. The conditions noted are these: s.c. 7.5 and 30.0 mg/kg; two hours; western blotting (Young et al.); cited from earlier work.
The test system of assay [4] is MK-801-induced hyperactivity. The experiment in a line: Reversal of MK-801-induced hyperactivity. Format: in vivo, Non-Swiss Albino (NSA) mice. From the text: Clinically effective antipsychotic drugs can block the behavioral effects of non-competitive N-methyl-D-aspartate […], such as MK-801. […]. […]
The next assay has as its target D2 dopamine receptor (Homo sapiens, UniProt P14416). Nature of the assay: R-SAT competitive antagonist assay.
In the next assay the target is T3, M5 muscarinic receptor (Homo sapiens, UniProt P08912).
T3 sequence (P08912 1-532): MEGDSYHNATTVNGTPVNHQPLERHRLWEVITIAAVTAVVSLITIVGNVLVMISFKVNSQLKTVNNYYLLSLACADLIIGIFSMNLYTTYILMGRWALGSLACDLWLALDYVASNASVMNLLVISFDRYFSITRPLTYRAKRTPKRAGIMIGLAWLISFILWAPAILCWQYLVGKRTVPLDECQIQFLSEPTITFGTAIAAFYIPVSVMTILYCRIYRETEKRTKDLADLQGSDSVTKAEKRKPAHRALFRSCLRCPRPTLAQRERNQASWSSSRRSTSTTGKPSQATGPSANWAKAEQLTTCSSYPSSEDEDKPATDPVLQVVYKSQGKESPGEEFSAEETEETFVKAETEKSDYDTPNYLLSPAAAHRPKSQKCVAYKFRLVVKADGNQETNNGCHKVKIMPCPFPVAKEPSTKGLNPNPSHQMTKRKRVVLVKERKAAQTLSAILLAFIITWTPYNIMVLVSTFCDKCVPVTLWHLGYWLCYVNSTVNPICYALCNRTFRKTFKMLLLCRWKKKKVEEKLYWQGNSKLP
The experiment in a line: R-SAT competitive antagonist assay. The conditions noted are these: nr = no significant antagonist or inverse agonist activity up to 1 μM, nr* = nr but significant agonist activity.

In assay [5] the target is T1, M3 muscarinic receptor. The experiment in a line: R-SAT agonist assay.
In another assay the target is T4, 5-HT1A receptor (Homo sapiens, UniProt P08908).
T4 sequence (P08908 1-422): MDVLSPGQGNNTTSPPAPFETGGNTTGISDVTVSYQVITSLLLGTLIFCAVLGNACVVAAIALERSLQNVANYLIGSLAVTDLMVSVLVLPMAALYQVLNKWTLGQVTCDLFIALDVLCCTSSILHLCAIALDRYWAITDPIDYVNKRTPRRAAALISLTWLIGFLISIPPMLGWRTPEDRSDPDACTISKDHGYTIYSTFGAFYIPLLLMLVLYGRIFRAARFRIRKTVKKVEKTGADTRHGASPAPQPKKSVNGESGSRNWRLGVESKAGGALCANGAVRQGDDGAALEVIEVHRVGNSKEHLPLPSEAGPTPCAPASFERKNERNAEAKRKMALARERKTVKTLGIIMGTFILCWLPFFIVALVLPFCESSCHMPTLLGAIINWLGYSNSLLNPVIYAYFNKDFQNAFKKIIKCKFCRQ
Nature of the assay: Ligand binding screen at 10 μM.

[6] abbreviates: R-SAT, nr = no significant antagonist or inverse agonist activity up to 1 μM, nr* = nr but significant agonist activity.

D2 dopamine receptor, sequence (P14416 whole entry): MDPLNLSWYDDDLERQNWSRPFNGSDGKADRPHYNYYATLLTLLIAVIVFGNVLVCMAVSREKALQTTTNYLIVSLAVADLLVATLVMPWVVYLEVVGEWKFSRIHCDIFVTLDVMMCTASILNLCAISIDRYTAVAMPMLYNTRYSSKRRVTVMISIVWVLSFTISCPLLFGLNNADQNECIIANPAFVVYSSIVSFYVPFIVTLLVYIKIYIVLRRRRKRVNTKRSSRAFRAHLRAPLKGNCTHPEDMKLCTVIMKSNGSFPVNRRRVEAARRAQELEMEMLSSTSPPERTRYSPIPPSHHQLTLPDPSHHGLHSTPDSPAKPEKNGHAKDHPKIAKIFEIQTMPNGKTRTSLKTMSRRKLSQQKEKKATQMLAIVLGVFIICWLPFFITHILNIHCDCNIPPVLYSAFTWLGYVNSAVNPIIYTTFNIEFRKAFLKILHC
5HT3 receptors, sequence (P46098 24-478): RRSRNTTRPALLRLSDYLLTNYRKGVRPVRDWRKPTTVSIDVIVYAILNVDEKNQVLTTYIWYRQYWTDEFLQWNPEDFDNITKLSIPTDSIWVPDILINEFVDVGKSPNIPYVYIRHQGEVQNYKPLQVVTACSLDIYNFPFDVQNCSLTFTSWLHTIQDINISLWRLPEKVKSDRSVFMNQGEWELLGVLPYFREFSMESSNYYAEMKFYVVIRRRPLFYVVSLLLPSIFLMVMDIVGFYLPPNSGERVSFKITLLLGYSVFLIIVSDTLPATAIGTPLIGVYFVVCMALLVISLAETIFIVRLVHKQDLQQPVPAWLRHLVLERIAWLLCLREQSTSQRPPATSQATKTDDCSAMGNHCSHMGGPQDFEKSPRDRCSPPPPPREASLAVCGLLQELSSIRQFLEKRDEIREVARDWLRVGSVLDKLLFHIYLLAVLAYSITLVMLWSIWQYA
H1 receptors, sequence (P35367 whole entry): as the sequence (P35367 whole entry) above

Regarding `Clc1ccc2c(c1)N=C(N1CCNCC1)c1ccccc1N2` [NDMC, 8-chloro-11-(1-piperazinyl)-5H-dibenzo [b,e][1,4] diazepine], the inhibition at 10 µM at H1 receptors, on δ2 receptors, on M1 receptors, on 5HT3 receptors, on 5HT6 receptors and on 5-HT1A receptor was at least 90% in each case. Further, the “MAPK activation in CA1 region of hippocampus” value in assay [1] (s.c. 3, 10, 30 and 100 mg/kg, killed two hours later, phospho-MAPK immunoreactivity) was “stimulation of MAPK activity at all doses in a dose-dependent manner; also recorded: Robust activation was observed, at a dose of 30 mg/kg”. Also, the “dose with statistically significant M1 receptor activation (phospho-MAPK)” value in assay [1] (s.c., optical density of CA1 region, vs vehicle) is reported as at least 30 mg/kg. The Ki at M3 muscarinic receptor [2] was 158 nM; at H1 histamine receptor, 6.31 nM; on D2 dopamine receptor, 63.1 nM. Moreover, in [3], the “pKi α1A, competitive antagonist” value is reported as 7.3 ± 0.1. For the same compound, the “pKi H1, competitive antagonist” value on H1 histamine receptor (setting [6]) came to 8.2 ± 0.2. Also, the “cFOS expression in brain regions” value with cFOS expression in brain was “induction of cFOS expression in the pre-frontal cortex and nucleus accumbens, but not in striatum”. Besides, the “minimal effective dose, attenuation of MK-801-induced hyperactivity” value is given as 10 mg/kg in assay [4] (p.o.) and 1 mg/kg in [4] (s.c.). Further, on D2 dopamine receptor (setting [6]), the “pKi D2, competitive antagonist” value is given as 7.2 ± 0.1. At M5 muscarinic receptor, the “pKi M5, competitive antagonist” value is given as “nr*”. Besides, at M3 muscarinic receptor [5] (M3 pEC50, R-SAT agonist), the EC50 was 324 nM and 316 nM. Also, at M3 muscarinic receptor [5] (R-SAT, relative to carbachol, No response/nr = no agonist activity up to 10 μM), the “M3 Efficacy” value is reported as 27 ± 4%.
